Values joined by “and” are separate entries in the source; they are usually repeats but may differ in a detail not shown here. Equal entries are not always repeated. “Also recorded” adds a separate entry of the source. Where two headings read alike, the source gives them in different places.
Tests used:
[1] = biological target: T1, human dopamine transporter (Homo sapiens, UniProt Q01959); experiment: [3H]cocaine binding in hDAT HEK-293 cells after pre-incubation with compound and washing; conditions: for irreversible binding to the DAT: 24 hour incubation, then washing; for Inhibition of cocaine binding after 24 h (%): 24-h pre-incubation, cells extensively washed, [3H]cocaine 20 nM, HEK-293 hDAT
T1 construct: expressed in transfected cells; host or cells: HEK-293

DAT = DAT (Macaca fascicularis, UniProt Q9GJT6); conditions: quoted for known ligands; cited from earlier work
[2] = biological target: serotonin transporter (SERT) (UniProt A7KAX8); experiment: Competition binding with [3H]citalopram at the serotonin transporter
Experimental: (§1) The affinities (IC50) of the compounds for the dopamine and serotonin transporters were determined in competition studies using [3H]2β-carbomethoxy-3β-(4-fluorophenyl)-8-methyl-8-azabicyclo[3.2.1]octane ([^3H]WIN 35,428) to label the dopamine transporter and [^3H]citalopram to label the serotonin transporter. Competition studies were conducted with a fixed concentration of radioligand and a range of concentrations of the test compound. […] The cells were then exhaustively washed to remove non-covalently bound ligand and binding of cocaine (20 nM) and dopamine uptake (Vmax) were compared.

[3] = biological target: T2, dopamine transporter (DAT) (UniProt Q9GJT6); experiment: Competition binding with [3H]WIN 35,428 at the dopamine transporter
T2 construct: Dopamine transporter IC50 (nM) [3H]WIN 35,428; other: unit not given
Experimental: as §1

[4] = biological target: T1, human dopamine transporter; experiment: [3H]dopamine uptake in hDAT HEK-293 cells after pre-incubation with compound and washing; assay type: cell-based; design: Inhibition of DA uptake after 24 h (%) / Inhibition of DA uptake: concentration or dose not given beside the values; conditions: for Inhibition of DA uptake after 24 h (%): 24-h pre-incubation, cells extensively washed, HEK-293 hDAT; for decrease of [3H]dopamine transport / [3H]Dopamine transport % of control: 24 hour pre-incubation
[5] = Table 5, read-out: Serotonin transporter IC50 (nM) [3H]citalopram
[6] = Table 5, read-out: Dopamine transporter IC50 (nM) [3H]WIN 35,428
[7] = unit inferred, read-out: SERT (binding, Table 6)
[8] = unit inferred, read-out: DAT (binding, Table 6)
[9] = 24 hours, concentration not stated (n=4)
[10] = 24 hour pre-incubation, O-1893 (1 uM)
[11] = 24 hour pre-incubation with O-2153

T1 sequence (Q01959 whole entry): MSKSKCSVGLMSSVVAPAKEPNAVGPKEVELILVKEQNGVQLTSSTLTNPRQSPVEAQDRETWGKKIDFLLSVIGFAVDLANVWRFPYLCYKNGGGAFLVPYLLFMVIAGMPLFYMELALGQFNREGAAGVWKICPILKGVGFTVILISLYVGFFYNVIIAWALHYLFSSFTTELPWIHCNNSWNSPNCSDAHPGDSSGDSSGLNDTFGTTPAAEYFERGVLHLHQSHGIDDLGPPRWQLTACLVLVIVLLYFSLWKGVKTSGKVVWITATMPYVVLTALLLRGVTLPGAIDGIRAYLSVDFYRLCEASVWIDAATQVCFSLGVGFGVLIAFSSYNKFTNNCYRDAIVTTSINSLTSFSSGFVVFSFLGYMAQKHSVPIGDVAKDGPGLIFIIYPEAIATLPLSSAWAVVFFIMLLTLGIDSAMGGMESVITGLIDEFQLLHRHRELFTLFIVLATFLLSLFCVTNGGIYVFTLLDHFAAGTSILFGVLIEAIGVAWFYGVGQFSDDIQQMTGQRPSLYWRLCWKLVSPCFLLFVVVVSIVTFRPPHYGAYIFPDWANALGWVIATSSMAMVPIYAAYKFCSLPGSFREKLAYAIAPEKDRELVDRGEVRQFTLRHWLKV
Sequence of DAT (Q9GJT6 whole entry): as the sequence (Q01959 whole entry) above, with V24M, I137V, P194S, S198G, D200N, S201G, S202P counted along it

COC(=O)C1C(c2ccc(F)cc2)CC2CCC1N2C (stereo not drawn) [WIN 35,428, 2β-carbomethoxy-3β-(4-fluorophenyl)-8-methyl-8-azabicyclo[3.2.1]octane, reference compound]
irreversible binding to the DAT [1]: did not bind irreversibly | IC50 (DAT): 11 nM | IC50 [2, 5]: 160 nM | IC50 [3, 6]: 11 nM

CC(C)CC(=O)OCC1C2CCC(CC1c1ccc(Cl)c(Cl)c1)O2 (stereo not drawn) [Compound O-2059, 3-Methylbutanoic acid-[3α-(3,4-dichlorophenyl)-8-oxabicyclo[3.2.1]oct-2β-yl]methyl ester]
Inhibition of DA uptake after 24 h (%) [4]: 60% | Inhibition of cocaine binding after 24 h (%) [1]: 60% | IC50 [2, 5]: 515 nM | IC50 [3, 6]: 75 nM

COC(=O)C1C2CCC(CC1c1ccc(Cl)c(Cl)c1)O2 (stereo not drawn) [2β-carbomethoxy-3α-(3′,4′-dichlorophenyl)-8-oxabicyclo[3.2.1]octane]
IC50 (DAT): 2.34 nM

COC(=O)[C@H]1[C@@H](OC(=O)c2ccccc2)C[C@@H]2CC[C@H]1N2C [(−)-Cocaine, cocaine, reference compound]
IC50 [2, 5]: 270 nM | IC50 [3, 6]: 95 nM

O=C(CCC1CO1)OCC1C2CCC(CC1c1ccc(Cl)c(Cl)c1)O2 (racemic) [Compound O-1834, 3-Oxiranyl-propionic acid [3α-(3,4-dichlorophenyl)-8-oxabicyclo[3.2.1]oct-3β-yl]methyl ester]
Inhibition of DA uptake after 24 h (%) [4]: 68% | Inhibition of DA uptake ([4]; Table 6, incub time 24 h): 68% | Inhibition of cocaine binding after 24 h (%) [1]: 18% | Inhibition of Cocaine Binding ([1]; Table 6, incub time 24 h): 18% | IC50 [2, 5]: 292 nM | IC50 [2, 7]: 294 nM | IC50 [3, 6]: 17 nM | IC50 [3, 8]: 17 nM

O=C(OCCCN1C(=O)C=CC1=O)C1C(c2ccc(F)cc2)CC2CCC1N2CCN1C(=O)C=CC1=O (centres unmarked) [Compound O-2335]
IC50 [2, 7]: 10000 nM | IC50 [3, 8]: 300 nM

O=C(OCCCN1C(=O)C=CC1=O)C1C(c2ccc(F)cc2)CC2CCC1N2CCCN1C(=O)C=CC1=O (centres unmarked) [Compound O-2492]
IC50 [2, 7]: 2000 nM | IC50 [3, 8]: 237 nM

C=CCOC(=O)C1C2CCC(CC1c1ccc(Cl)c(Cl)c1)O2 (centres unmarked) [Compound O-2227]
Inhibition of DA uptake ([4]; Table 6, incub time 1 h): 0% | Inhibition of DA uptake ([4]; Table 6, incub time 24 h): 40% | Inhibition of Cocaine Binding ([1]; Table 6, incub time 1 h): 0% | Inhibition of Cocaine Binding ([1]; Table 6, incub time 24 h): 55% | IC50 [2, 7]: 32 nM | IC50 [3, 8]: 3 nM

CCN1C(=O)C=CC1=O [N-Ethylmaleimide, N-ethylmaleimide, reference compound]
Inhibition of DA uptake after 24 h (%) [4]: 35% | Inhibition of cocaine binding after 24 h (%) [1]: 35% | irreversible binding to the DAT [1]: did manifest irreversible binding | IC50 [2, 5]: > 100000 nM | IC50 ([3]; read-out: Dopamine transporter IC50 (nM) [3H]WIN 35,428, Table 5): > 100000 nM

CCCCC(=O)OCC1C2CCC(CC1c1ccc(Cl)c(Cl)c1)O2 (stereo not drawn) [Compound O-2102, Pentanoic acid-[3α-(3,4-dichlorophenyl)-8-oxabicyclo[3.2.1]oct-2β-yl]methyl ester]
Inhibition of DA uptake after 24 h (%) [4]: 0% | Inhibition of cocaine binding after 24 h (%) [1]: 0% | IC50 [2, 5]: 917 nM | IC50 [3, 6]: 71 nM

C=CCCC(=O)OCC1C2CCC(CC1c1ccc(Cl)c(Cl)c1)O2 (stereo not drawn) [Compound O-1893, pent-4-enoic acid-(3α-(3,4-dichlorophenyl)-8-oxabicyclo[3.2.1]oct-2β-yl)methyl ester]
Inhibition of DA uptake after 24 h (%) [4]: 23% | Inhibition of DA uptake after 24 h (%) ([4]; listed as 3): much reduced; also recorded: no inhibition | Dopamine transport % of control ([4]; 1 hour pre-incubation): 29 % of control and 43 % of control and 27 % of control | decrease of [3H]dopamine transport ([4]; 1 uM): 5% | decrease of [3H]dopamine transport ([4]; higher concentration (5 uM, different cells)): 23% and 22% | [3H]Dopamine transport % of control ([4]; O-1893 (1 uM)): 91 % of control and 98 % of control and 95 % of control | [3H]Dopamine transport % of control ([4]; O-1893-2 (5 uM, different cells), 5 µM): 80 % of control and 72 % of control and 81 % of control and 90 % of control and 67 % of control | reduction of [3H]dopamine transport [4, 9]: reduced to a lesser extent | transporter affinity for dopamine ([4]; initially, within one hour of preincubation (n=3)): reduced | Inhibition of cocaine binding after 24 h (%) [1]: 63% | [3H]cocaine binding % of control ([1]; 1 hour pre-incubation): 12 % of control and 10 % of control and 7 % of control | irreversible binding to the DAT [1]: no irreversible binding took place | decline of specific [3H]cocaine binding sites ([1]; 24 hour pre-incubation, higher concentration (5 uM, different cells)): 62% | Tot- NS (dpms) [1, 10]: 3,154 dpms and 3,853 dpms and 4,913 dpms and 6,331 dpms | [3H]cocaine binding % of control [1, 10]: 45 % of control and 43 % of control and 42 % of control and 49 % of control | reduction of [3H]cocaine binding (CDPM) [1, 9]: more than 50% | IC50 [2, 5]: 593 nM | IC50 [3, 6]: 20 nM

CCN1C(=O)C=CC1=O [Compound O-1765]
Inhibition of DA uptake ([4]; Table 6, incub time 24 h): 35% | Inhibition of Cocaine Binding ([1]; Table 6, incub time 24 h): 35%

COCC(=O)OCCCN1C2CCC1C(C(=O)OC)C(c1ccc(F)cc1)C2 (stereo not drawn) [Compound O-1071, 2β-Carbomethoxy-3β-(4-fluorophenyl)-8-(3-methoxyacetoxypropyl)-8-azabicyclo[3 2.1]octane]
Inhibition of DA uptake ([4]; Table 6, incub time 24 h): 0% | Inhibition of Cocaine Binding ([1]; Table 6, incub time 24 h): 0% | IC50 [2, 7]: 3000 nM | IC50 [3, 8]: 125 nM

C=CCCNCC1C(c2ccc(F)cc2)CC2CCC1N2C (centres unmarked) [Compound O-2583]
IC50 [3, 8]: 500 nM

COC(=O)C1C(c2ccc(F)cc2)CC2CCC1N2CCOC(C)=O (stereo not drawn) [Compound O-1103, 2β-Carbomethoxy-3β-(4-fluorophenyl)-8-(2-acetoxyethyl)-8-azabicyclo[3.2.1]octane]
Inhibition of DA uptake ([4]; Table 6, incub time 24 h): 0% | Inhibition of Cocaine Binding ([1]; Table 6, incub time 24 h): 0% | IC50 ([2]; read-out: SERT (binding, Table 6), unit inferred): 200 nM | IC50 ([3]; read-out: DAT (binding, Table 6), unit inferred): 20 nM

COC(=O)C1C(c2ccc(F)cc2)CC2CCC1N2CCOC(=O)CCC1CO1 (stereo not drawn) [Compound O-1899, 2β-Carbomethoxy-3β-(4-fluorophenyl)-8-[2-(3-oxiranylpropionyloxy)ethyl]-8-azabicyclo[3.2.1]octane]
Inhibition of DA uptake ([4]; Table 6, incub time 24 h): 0% | Inhibition of DA uptake ([4]; Table 6, incub time 48 h): 20% | Inhibition of Cocaine Binding ([1]; Table 6, incub time 24 h): 0% | Inhibition of Cocaine Binding ([1]; Table 6, incub time 48 h): 40% | IC50 [2, 7]: 230 nM | IC50 [3, 8]: 53 nM

C=CCCCOCC1C2CCC(CC1c1ccc(Cl)c(Cl)c1)O2 (stereo not drawn) [Compound O-2153, 3α-(3,4-dichlorophenyl)-2β-pent-4-enyloxymethyl-8-oxabicyclo[3.2.1]octane]
Inhibition of DA uptake after 24 h (%) [4]: 40% | [3H]Dopamine transport % of control (column head not given, as Table 3) [4, 11]: 51 and 54 | Inhibition of cocaine binding after 24 h (%) [1]: 80% | irreversible binding to the DAT [1]: bound irreversibly | Tot- NS (dpms) (column head not given, as Table 3) [1, 11]: 12,216 and 6,792 | [3H]cocaine binding % of control (column head not given, as Table 3) [1, 11]: 28 and 18 | IC50 [2, 5]: 755 nM | IC50 [3, 6]: 58 nM

C=CCCCOCC1C(c2ccc(F)cc2)CC2CCC1N2C (centres unmarked) [Compound O-2528]
IC50 [3, 8]: 41 nM

C=CCCC(=O)OCC1C(c2ccc(F)cc2)CC2CCC1N2C (centres unmarked) [Compound O-2517]
IC50 [3, 8]: 60 nM

COC(=O)C1C(c2ccc(F)cc2)CC2CCC1N2CCN1C(=O)C=CC1=O (stereo not drawn) [Compound O-1233, 2β-Carbomethoxy-3β-(4-fluorophenyl)-8-(2-maleimidoethyl)-8-azabicyclo[3.2.1]octane]
Inhibition of Cocaine Binding ([1]; Table 6, incub time 1 h): 50%/1 h | IC50 [2, 7]: 3000 nM | IC50 [3, 8]: 237 nM

O=C(OCCN1C(=O)C=CC1=O)C1C(c2ccc(F)cc2)CC2CCC1N2CCN1C(=O)C=CC1=O (centres unmarked) [Compound O-2315]
IC50 [2, 7]: 14000 nM | IC50 [3, 8]: 2000 nM

C=CCCNC(=O)C1C(c2ccc(F)cc2)CC2CCC1N2C (centres unmarked) [Compound O-2578]
IC50 [3, 8]: 800 nM
